These results are taken from patent publication US6855710B2, “Substituted indolines with an inhibitory effect on various kinases and complexes of CDKs” (Boehringer Ingelheim Pharma KG, priority 1998, dated 2005).

The melting point is the temperature, or range, at which the solid turns liquid.

On to `CN(C(=O)CN1CCOCC1)c1ccc(N/C(=C2\C(=O)Nc3ccc([N+](=O)[O-])cc32)c2ccccc2)cc1` [Example 102, (Z)-3-{1-[4-(N-morpholinomethylcarbonyl-N-methyl-amino)-phenylamino]-1-phenyl-methylidene}-5-nitro-2-indolinone], for which the melting point lay in the range of 293 to 295 °C. To `CN(C(=O)CN1CCN(Cc2ccccc2)CC1)c1ccc(N/C(=C2\C(=O)Nc3ccc([N+](=O)[O-])cc32)c2ccccc2)cc1` [Example 104, (Z)-3-{1-[4-(N-(4-benzylpiperazinomethylcarbonyl)-N-methyl-amino)-phenylamino]-1-phenyl-methylidene}-5-nitro-2-indolinone] belongs 201 to 203 °C; to `CN(C)CC(=O)NCc1cccc(N/C(=C2\C(=O)Nc3ccc([N+](=O)[O-])cc32)c2ccccc2)c1` [Example 106, (Z)-3-[1-(3-dimethylaminomethylcarbonylaminomethyl-phenylamino)-1-phenyl-methylidene]-5-nitro-2-indolinone], 171 to 173 °C. The same measure for `CN(C)Cc1cccc(N/C(=C2\C(=O)Nc3ccc([N+](=O)[O-])cc32)c2ccccc2)c1` [Example 107, (Z)-3-[1-(3-dimethylaminomethyl-phenylamino)-1-phenyl-methylidene]-5-nitro-2-indolinone]: 214 to 217 °C.

Take `O=C1Nc2ccc([N+](=O)[O-])cc2/C1=C(/Nc1cccc(CN2CCCCC2)c1)c1ccccc1` [Example 108, (Z)-3-[1-(3-piperidinomethyl-phenylamino)-1-phenyl-methylidene]-5-nitro-2-indolinone]: the melting point fell in the range of 214 to 215 °C. The same measure for `CN1CCN(Cc2cccc(N/C(=C3\C(=O)Nc4ccc([N+](=O)[O-])cc43)c3ccccc3)c2)CC1` [Example 110, (Z)-3-{1-[3-(4-methylpiperazinomethyl)-phenylamino]-1-phenyl-methylidene}-5-nitro-2-indolinone]: 256 to 258 °C. `CCOC(=O)CNCc1cccc(N/C(=C2\C(=O)Nc3ccc([N+](=O)[O-])cc32)c2ccccc2)c1` [Example 111, (Z)-3-[1-(3-ethoxycarbonylmethylaminomethyl-phenylamino)-1-phenyl-methylidene]-5-nitro-2-indolinone] registered a melting point of 130 to 133 °C.

In turn, `CCOC(=O)CCNCc1cccc(N/C(=C2\C(=O)Nc3ccc([N+](=O)[O-])cc32)c2ccccc2)c1` [Example 112, (Z)-3-{1-[3-(2-ethoxycarbonyl-ethylaminomethyl)-phenylamino]-1-phenyl-methylidene}-5-nitro-2-indolinone] had a melting point of 142 to 145 °C. The same measure for `CC(C)(C)OC(=O)NCc1ccc(N/C(=C2\C(=O)Nc3ccc([N+](=O)[O-])cc32)c2ccccc2)cc1` [Example 113, (Z)-3-[1-(4-tert.butoxycarbonylaminomethyl-phenylamino)-1-phenyl-methylidene]-5-nitro-2-indolinone]: 234 to 236 °C (dec.); for `O=C1Nc2ccc([N+](=O)[O-])cc2/C1=C(/Nc1ccc(CN2CCOCC2)cc1)c1ccccc1` [Example 118, (Z)-3-[1-(4-morpholinomethyl-phenylamino)-1-phenyl-methylidene]-5-nitro-2-indolinone]: 273 °C. The same measure for `O=C1Nc2ccc([N+](=O)[O-])cc2/C1=C(/Nc1ccc(CN2CCCCCC2)cc1)c1ccccc1` [Example 119, (Z)-3-[1-(4-hexamethyleneiminomethyl-phenylamino)-1-phenyl-methylidene]-5-nitro-2-indolinone]: 220 °C; for `CC(=O)N(C)Cc1ccc(N/C(=C2\C(=O)Nc3ccc([N+](=O)[O-])cc32)c2ccccc2)cc1` [Example 122, (Z)-3-{1-[4-(N-acetyl-N-methyl-aminomethyl)-phenylamino]-1-phenyl-methylidene}-5-nitro-2-indolinone]: 307 °C. The same measure for `C[C@H](NC(=O)OC(C)(C)C)c1ccc(N/C(=C2\C(=O)Nc3ccc([N+](=O)[O-])cc32)c2ccccc2)cc1` [Example 123, (Z,S)-3-{1-[4-(1-tert.butoxycarbonylamino-ethyl)-phenylamino]-1-phenyl-methylidene}-5-nitro-2-indolinone]: 247 to 249 °C (dec.). As to `C[C@@H](NC(=O)OC(C)(C)C)c1ccc(N/C(=C2\C(=O)Nc3ccc([N+](=O)[O-])cc32)c2ccccc2)cc1` [Example 125, (Z,R)-3-{1-[4-(1-tert.butoxycarbonylamino-ethyl)-phenylamino]-1-phenyl-methylidene}-5-nitro-2-indolinone], the melting point is 247 to 249 °C. To `CC(C)(C)OC(=O)NCCc1ccc(N/C(=C2\C(=O)Nc3ccc([N+](=O)[O-])cc32)c2ccccc2)cc1` [Example 127, (Z)-3-{1-[4-(2-tert.butoxycarbonylamino-ethyl)-phenylamino]-1-phenyl-methylidene}-5-nitro-2-indolinone] belongs 213 to 214 °C. To `CC(=O)NCCc1ccc(N/C(=C2\C(=O)Nc3ccc([N+](=O)[O-])cc32)c2ccccc2)cc1` [Example 129, (Z)-3-{1-[4-(2-acetylamino-ethyl)-phenylamino]-1-phenyl-methylidene}-5-nitro-2-indolinone] belongs 306 to 307 °C; to `CCN(CC)CCc1ccc(N/C(=C2\C(=O)Nc3ccc([N+](=O)[O-])cc32)c2ccccc2)cc1` [Example 130, (Z)-3-{1-[4-(2-diethylamino-ethyl)-phenylamino]-1-phenyl-methylidene}-5-nitro-2-indolinone], 167 to 168 °C. In turn, `CCN(CCO)CCc1ccc(N/C(=C2\C(=O)Nc3ccc([N+](=O)[O-])cc32)c2ccccc2)cc1` [Example 131, (Z)-3-{1-[4-(2-(N-(2-hydroxyethyl)-N-ethyl-amino)-ethyl)-phenylamino]-1-phenyl-methylidene}-5-nitro-2-indolinone] showed a melting point of 165 to 166 °C. To `O=C1Nc2ccc([N+](=O)[O-])cc2/C1=C(/Nc1ccc(CCN2CCCCC2)cc1)c1ccccc1` [Example 132, (Z)-3-{1-[4-(2-piperidinoethyl)-phenylamino]-1-phenyl-methylidene}-5-nitro-2-indolinone] belongs 236 to 237 °C. With `CN1CCN(CCc2ccc(N/C(=C3\C(=O)Nc4ccc([N+](=O)[O-])cc43)c3ccccc3)cc2)CC1` [Example 135, (Z)-3-{1-[4-(2-(4-methylpiperazino)-ethyl)-phenylamino]-1-phenyl-methylidene}-5-nitro-2-indolinone], the melting point is 238 to 240 °C.

Molecule `CC(C)(C)OC(=O)NCC(=O)NCc1cccc(N/C(=C2\C(=O)Nc3ccc([N+](=O)[O-])cc32)c2ccccc2)c1` [Example 136, (Z)-3-[1-(3-tert.butoxycarbonylaminomethylcarbonylaminomethyl-phenylamino)-1-phenyl-methylidene]-5-nitro-2-indolinone] showed a melting point of 228 °C. The same measure for `CC(=O)NCc1cccc(N/C(=C2\C(=O)Nc3ccc([N+](=O)[O-])cc32)c2ccccc2)c1` [Example 138, (Z)-3-[1-(3-acetylaminomethyl-phenylamino)-1-phenyl-methylidene]-5-nitro-2-indolinone]: 238 °C; for `CN(C(=O)CN)c1ccc(N/C(=C2\C(=O)Nc3ccc([N+](=O)[O-])cc32)c2ccccc2)cc1` [Example 139, (Z)-3-{1-[4-(N-aminomethylcarbonyl-N-methyl-amino)-phenyl-amino]-1-phenyl-methylidene}-5-nitro-2-indolinone]: 255 to 256 °C. To `CC(=O)NCC(=O)N(C)c1ccc(N/C(=C2\C(=O)Nc3ccc([N+](=O)[O-])cc32)c2ccccc2)cc1` [Example 140, (Z)-3-{1-[4-(N-acetylaminomethylcarbonyl-N-methyl-amino)phenylamino]-1-phenyl-methylidene}-5-nitro-2-indolinone] belongs 277 to 278 °C. To `O=C(CN1CCOCC1)NCc1ccc(N/C(=C2\C(=O)Nc3ccc([N+](=O)[O-])cc32)c2ccccc2)cc1` [Example 141, (Z)-3-[1-(4-morpholinomethylcarbonylaminomethyl-phenylamino)-1-phenyl-methylidene]-5-nitro-2-indolinone] belongs 290 to 295 °C. `CN(C)CC(=O)NCc1ccc(N/C(=C2\C(=O)Nc3ccc([N+](=O)[O-])cc32)c2ccccc2)cc1` [Example 142, (Z)-3-[1-(4-dimethylaminomethylcarbonylaminomethyl-phenylamino)-1-phenyl-methylidene]-5-nitro-2-indolinone] returned a melting point of 272 to 273 °C. The same measure for `CC(=O)NCc1ccc(N/C(=C2\C(=O)Nc3ccc([N+](=O)[O-])cc32)c2ccccc2)cc1` [Example 143, (Z)-3-[1-(4-acetylaminomethyl-phenylamino)-1-phenyl-methylidene]-5-nitro-2-indolinone]: 345 to 346 °C; for `CC(C)(C)OC(=O)NCC(=O)NCc1ccc(N/C(=C2\C(=O)Nc3ccc([N+](=O)[O-])cc32)c2ccccc2)cc1` [Example 144, (Z)-3-[1-(4-tert.butoxycarbonylaminomethylcarbonylaminomethyl-phenylamino)-1-phenyl-methylidene]-5-nitro-2-indolinone]: 219 to 221 °C (dec.); for `CC(=O)NC(c1ccc(N/C(=C2\C(=O)Nc3ccc([N+](=O)[O-])cc32)c2ccccc2)cc1)N(C)C(=O)OC(C)(C)C` (stereo not drawn) [Example 145, (Z)-3-{1-[4-((N-tert.butoxycarbonyl-N-methyl-amino)-methylcarbonylaminomethyl)-phenylamino]-1-phenyl-methylidene}-5-nitro-2-indolinone]: 225 to 227 °C (dec.). To `CC(=O)N1C(=O)/C(=C(\Nc2ccc(CNC(=O)OC(C)(C)C)cc2)c2ccc(CN3C(=O)c4ccccc4C3=O)cc2)c2cc([N+](=O)[O-])ccc21` [Example 146, (Z)-3-[1-(4-tert.butoxycarbonylaminomethyl-phenylamino)-1-(4-phthalimidomethyl-phenyl)-methylidene]-1-acetyl-5-nitro-2-indolinone] belongs 125 °C (dec.).
